# Experimental data taken from article PMC9814792 (Communications Chemistry, 2022).
# Experiments:
# F331, BEC, HaCat cells = experiment: 72 h cell viability (MTT) assay, non-malignant cell types; format: cell-based, human
# Experimental: (§1) Cells were seeded (3–4 ×10^3 cells/well) in 96-well plates in 100 µL and after 24 h recovery treated with 100 µL of compounds at the indicated concentrations in triplicates. After 72 h drug exposure cell viability was determined by 3-(4,5-dimethylthiazol-2-yl)-2,5-diphenyltetrazolium bromide (MTT)-vitality assay (EZ4U, Biomedica, Vienna, Austria) following the manufacturer’s recommendations, as published. Absorbance was measured at 450 nm (at 620 nm as reference) using the multimode plate reader Tecan Infinite 200 Pro (Zurich, Switzerland). Cytotoxicity was expressed as IC50 values calculated from full dose-response curves using the 4 parameter nonlinear regression model of GraphPad Prism 8 software (La Jolla, CA, USA).
# A2780 cells = experiment: 72 h cell viability (MTT) assay; format: cell-based, human; conditions: A2780, 72 h continuous exposure; read-out: IC50 value (95% confidence interval)
# Experimental: as §1
# A2780/Cis cells = experiment: 72 h cell viability (MTT) assay; format: cell-based, human
# Experimental: as §1
# HCT116 cells = experiment: 72 h cell viability (MTT) assay; format: cell-based, human; conditions: HCT116, 72 h continuous exposure; read-out: IC50 value (95% confidence interval)
# Experimental: as §1
# HCT116/OxR cells = experiment: 72 h cell viability (MTT) assay; format: cell-based, human
# Experimental: Absorbance was measured at 450 nm (at 620 nm as reference) using the multimode plate reader Tecan Infinite 200 Pro (Zurich, Switzerland). Cytotoxicity was expressed as IC50 values calculated from full dose-response curves using the 4 parameter nonlinear regression model of GraphPad Prism 8 software (La Jolla, CA, USA).
# [1] = Aqueous stability in phosphate buffer by UHPLC; format: physicochemical; conditions: for UHPLC peak integral, stability: method A
# Experimental: For stability measurements BSO-OxOAc (1 mM) was dissolved in phosphate buffer (100 mM, pH 7.4). For reduction experiments BSO-OxOAc (2 mM) was dissolved in phosphate buffer (500 mM, pH 7.4). A 20 mM solution of AA in the same buffer was added in a 1:1 ratio. The samples were immediately measured on a Dionex UltiMate 3000 RS UHPLC system equipped with a Waters Acquity UPLC® BEH C18 column (3×50 mm, pore size 1.7 µm), and absorption detection at 230 nm with incubation at 20 °C (Gradients: Method A: 0.0−0.5 min: 5% eluent B in eluent A; 0.5–5.5 min: 5-95% eluent B; 5.5–8.0 min: 95 % eluent B (eluent A = 0.1% formic acid in water, eluent B = 0.1 % formic acid in acetonitrile), method B: 0.0 − 0.5 min: 5% eluent B in eluent A; 0.5–5.5 min: 5-95% eluent B; 5.5–7.1 min: 95 % eluent B (eluent A = 0.1% formic acid in water, eluent B = 0.1 % formic acid in methanol). Data points were taken every 30 min for 6 h and at 24 h and 24.5 h.
compound,measurement,setting,value
"CCCCS(=N)(=O)CCC(NC(=O)[O][Pt]1([O]C(C)=O)[O]C(=O)C(=O)[O]1)C(=O)O.NC1CCCCC1N (mixture of isomers) [BSO-OxOAc, (OC-6-34)-Acetato(((1 S)-3-(butylsulfonimidoyl)-1-carboxypropyl)carbamato)((1 R,2 R)-1,2-cyclohexanediamino)oxalatoplatinum(IV)]",activity against non-malignant cell types,"F331, BEC, HaCat cells",widely inactive
same,IC50,A2780 cells,20.6 µM
same,IC50,"A2780/Cis cells; A2780/Cis, 72 h continuous exposure, read-out: IC50 value (95% confidence interval)",28.5 µM
same,resistance factor,A2780/Cis cells; IC50 A2780/Cis divided by IC50 A2780,1.4
same,IC50,HCT116 cells,32.1 µM
same,IC50,"HCT116/OxR cells; HCT116/OxR, 72 h continuous exposure, read-out: IC50 value (95% confidence interval)",95.5 µM
same,resistance factor,HCT116/OxR cells; IC50 HCT116/OxR divided by IC50 HCT116,2.9
same,"calculated half-life, aqueous stability","[1]; 1 mM, 100 mM phosphate buffer pH 7.4, 20 °C",~ 240 h
same,"UHPLC peak integral, stability","[1]; t=0, 1 mM",70.47 mAU
same,"UHPLC peak integral, stability","[1]; t=24 h, 1 mM",66.25 mAU
